According to patent US5700769A, “Enhancement of enzyme reactions” (Novo Nordisk A/S, priority 1992, dated 1997):
Read-outs that look alike come from different tables or passages of the source. Each block holds one molecule with its values, some of them ahead of it.

Legend:
[1] = biological target: T1, Coprinus cinereus peroxidase (CiP) (Coprinopsis cinerea, UniProt P28314); test: Initial bleaching of Direct Blue 1 by CiP with enhancer (Example 1); format: biochemical; conditions: 10 μM enhancer, 20 μM H2O2, 30° C., 610 nm
T1 construct: made in house
T1 sequence (P28314 21-363): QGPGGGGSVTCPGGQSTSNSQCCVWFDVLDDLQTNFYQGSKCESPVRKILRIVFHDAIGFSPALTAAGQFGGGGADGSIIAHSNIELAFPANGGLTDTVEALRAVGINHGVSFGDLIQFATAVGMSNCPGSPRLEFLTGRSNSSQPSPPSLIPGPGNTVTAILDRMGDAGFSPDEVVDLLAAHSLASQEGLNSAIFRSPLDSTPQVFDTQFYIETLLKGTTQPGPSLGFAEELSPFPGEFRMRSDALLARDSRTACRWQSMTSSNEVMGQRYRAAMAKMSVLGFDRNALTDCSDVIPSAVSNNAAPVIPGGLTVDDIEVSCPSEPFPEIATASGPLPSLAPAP
Protocol: The initial bleaching of Direct Blue 1 (DB1) by CiP using a selection of enhancers according to the invention was compared to the half-life of the oxidized enhancer (electron acceptor) measured under standard conditions.
Conditions for bleaching:
200 μl 50 mM Britton-Robinson* buffer
pH 8.5 and 10.5, respectively
After 5 seconds the bleaching was followed for at least 1 minute, and the initial bleaching rates (reduction in milli-absorbance units per minute, -ΔmAbs/min, determined from the initial slope of the absorbance curve) were determined.

[2] = Half-life of oxidized enhancer from cyclic voltammogram (Example 1); format: physicochemical; conditions: pH 10.5, enhancer 8 mM
Protocol: The half-life of the oxidized enhancers were determined from a cyclic voltammogram of the enhancers present at a concentration of 8 mM. The cyclic voltammograms were obtained in a standard three-electrode system consisting of
(§1) Working electrode Platinum disc
(§2) Counter electrode Platinum wire
(§3) Reference electrode Calomel
The half-life (t1/2) of the oxidized enhancers was calculated from the scan rates (.nu.), peak positions and switching potential in a cyclic voltammogram in which the peak current of the reducing peak had half the value of the peak current of the oxidizing peak. [formula] ΔE is the difference of the peak position of the reducing peak and the switching potential.
The switching potential was fixed at a potential 0.2 V higher than the peak position of the oxidizing peak in a reversible voltammogram. A reversible voltammogram is obtained at scan rates at which the difference between the peak positions of the oxidizing and reducing peak approaches 0.059 V.

CiP = biological target: T2, CiP (Coprinopsis cinerea, UniProt P28314); test: Apparent kinetic constants for oxidation of enhancer by CiP (Example 9); format: biochemical, Coprinus cinereus; conditions: pH 8.5, 30° C.; for Kcat (app.): turnover number calculated as Vmax/[CiP]o
T2 construct: made in house
T2 sequence (P28314 21-363): T1 sequence (P28314 21-363)
Protocol: (§4) The apparent kinetic constants for the oxidation of some of the enhancers of the invention, 10-ethyl-4-phenothiazinecarboxylic acid (EPC) and 10-phenothiazinepropionic acid (PTP), were determined using CiP (4nM for PTP and 3.1 nM for EPC), borate buffer (10 mM) pH 8.5, H2 O2 (50 μM) and varied concentrations of enhancer, 30° C. Formation of oxidized enhancer was monitored at 514 nm.
(§5) When Kcat (app.) is defined as the turnover number calculated as
(§6) Vmax /[CiP]o, where [CiP]o is the initial concentration of […]

[3] = ESR
Protocol: The stability of the ABTS radical formed by oxidation of ABTS with a recombinantly produced Coprinus cinereus peroxidase (rCiP), obtained according to Example 1, was studied by electron spin resonance technique (ESR). The ESR signal was calculated after 20 scans, where the area under curve corresponds to the concentration of the radical. The signal was integrated from 3260 Gaus to 3300 Gaus.
The stability of the radical was determined in 0.1M Britton & Robinson buffer at different pH values. A concentration of 2.27 mM H2 O2 and an enzyme concentration 34 PODU/ml was applied.
The half-lives in Table 3 measured at different concentrations have for comparison been calculated to a concentration of 250 μM assuming a 2nd order decay.

[4] = Decay of oxidized vanillin and 7-hydroxycoumarin from cyclic voltammograms (Example 7); format: physicochemical; conditions: enhancer 2 mM; comparison of experimental with simulated voltammograms
Protocol: The half-life of vanillin and 7-hydroxycoumarin was determined from cyclic voltammograms of the enhancers. The cyclic voltammograms were obtained in a three-electrode system consisting of
as §1, §2, §3
The concentration of the enhancers was 2 mM.
The order of the decay reaction of the oxidized enhancers was determined from the dependence of the peak position of the oxidizing peak (Epo) on the scan rate (.nu.). For both enhancers (δEpo /δlog.nu.)=0.019 V in the scan rate range 0.1-1.0 V/s showing that the decay reaction is 2nd order.
The rate constant of the decay reaction of the oxidized enhancers was determined from a comparison of the experimental cyclic voltammograms with simulated voltammograms. The parameters needed for the simulation are the reaction order of the decay reaction, the concentration of the enhancer, the scan rate […] the rate constant for the decay reaction as described in Analytical Chemistry, Vol. 60, p. 1159, 1988.

[5] = Half-life of benzidine derivatives by cyclic voltametri (Example 8); format: physicochemical; conditions: CV in DMF/H2O buffer (1/9), 2 mM, two electron transfer
Protocol: The half-life of the different benzidine derivatives was measured by cyclic voltametri (CV) in DMF/H2 O buffer (1/9) at pH 8.5 and 10.5 as described in. The concentration of the benzidines were 2 mM, and the half-life (t1/2) of the compounds is referring to a two electron transfer.

[6] = substrate: CCN1c2ccccc2Sc2c(C(=O)O)cccc21; test: Apparent kinetic constants for oxidation of enhancer by CiP (Example 9); format: biochemical, Coprinus cinereus; conditions: other: CiP 4 nM for PTP, 3.1 nM for EPC, borate buffer 10 mM pH 8.5, 50 μM H2O2, 30° C., 514 nm
Protocol: as §4, §5, §6

[7] = substrate: O=C(O)CCN1c2ccccc2Sc2ccccc21; test: as above; format: biochemical, Coprinus cinereus; conditions: other: CiP 4 nM for PTP, 3.1 nM for EPC, borate buffer 10 mM pH 8.5, 50 μM H2O2, 30° C., 514 nm
Protocol: as §4, §5, §6

bleaching (initial bleaching of Direct Blue 1) ([1]; pH 8.5, 2 nM CiP): 240 -ΔmAbs/min
bleaching (initial bleaching of Direct Blue 1) ([1]; pH 10.5, 1 nM CiP): 480 -ΔmAbs/min
Molecule: CN1c2ccccc2Sc2ccccc21 [10-methyl-phenothiazine]

bleaching (initial bleaching of Direct Blue 1) ([1]; pH 8.5, 2 nM CiP): 816 -ΔmAbs/min
bleaching (initial bleaching of Direct Blue 1) ([1]; pH 10.5, 1 nM CiP): 864 -ΔmAbs/min
t1/2 (half-life of the oxidized enhancer) [2]: 2.5 s
1/kcat (app.) (CiP): ~ 1 ms
Kcat (app.) (CiP): 997 ± 64 s⁻¹
Molecule: CCN1c2ccccc2Sc2c(C(=O)O)cccc21 [10-ethyl-4-phenothiazine-carboxylic acid, 10-ethyl-4-phenothiazinecarboxylic acid]

t1/2 of ABTS radical ([3]; pH 3, initial concentration 0.45 mM, 0.1M Britton & Robinson buffer): 83 h
t1/2 of ABTS radical ([3]; pH 4, initial concentration 0.45 mM): 66 h
t1/2 of ABTS radical ([3]; pH 6, initial concentration 0.45 mM): 6.75 h
t1/2 of ABTS radical ([3]; pH 7, initial concentration 0.24 mM): 1.4 h
t1/2 of ABTS radical ([3]; pH 8.7, initial concentration 0.24 mM): 0.67 h
Molecule: CCn1c(=NN=c2sc3cc(S(=O)(=O)O)ccc3n2CC)sc2cc(S(=O)(=O)O)ccc21 [ABTS, 2,2'-azino-bis (3-ethylbenzothiazoline-6-sulfonate)]

bleaching (initial bleaching of Direct Blue 1) ([1]; pH 8.5, 2 nM CiP): 72 -ΔmAbs/min
bleaching (initial bleaching of Direct Blue 1) ([1]; pH 10.5, 1 nM CiP): 99 -ΔmAbs/min
Molecule: COC(=O)CCN1c2ccccc2Sc2ccccc21 [methyl-10-phenothiazine-propionate]

bleaching (initial bleaching of Direct Blue 1) ([1]; pH 8.5, 2 nM CiP): 486 -ΔmAbs/min
bleaching (initial bleaching of Direct Blue 1) ([1]; pH 10.5, 1 nM CiP): 468 -ΔmAbs/min
1/kcat (app.) (CiP): ~ 1.5 ms
Kcat (app.) (CiP): 671 ± 124 s⁻¹
Molecule: O=C(O)CCN1c2ccccc2Sc2ccccc21 [10-phenothiazine propionic acid, 10-phenothiazinepropionic acid]

rate constant for the decay reaction of the oxidized enhancer [4]: ~10^8 M^-1 s^-1
Molecule: O=c1ccc2ccc(O)cc2o1 [7-hydroxycoumarin]

Molecule: Cc1cc(-c2cc(C)c(N)c(C)c2)cc(C)c1N [3,3',5,5'-tetramethyl-benzidine, 3,3',5,5'-tetramethylbenzidine]
t1/2 (half-life of oxidized enhancer) ([5]; pH 8.5): 4.5 s
t1/2 (half-life of oxidized enhancer) ([5]; pH 10.5): 5 s

bleaching (initial bleaching of Direct Blue 1) ([1]; pH 8.5, 2 nM CiP): 27 -ΔmAbs/min
bleaching (initial bleaching of Direct Blue 1) ([1]; pH 10.5, 1 nM CiP): 25 -ΔmAbs/min
Molecule: CC(=O)c1ccc2c(c1)N(C)c1ccccc1S2 [2-acetyl-10-methyl-phenothiazine]

rate constant for the decay reaction of the oxidized enhancer [4]: ~10^8 M^-1 s^-1
Molecule: COc1cc(C=O)ccc1O [vanillin]

B1: CiP (Coprinopsis cinerea) (protein)
chain: T1 sequence (P28314 21-363)
notes: made in house
Km [6]: 31 µM
Km [7]: 53 µM
